Laboratory results: patent US20170121344A1 (Siga Technologies, Inc., priority 2009, published 2017)
Where two headings read alike, the source gives them in different places.

Tested on: Dengue-2 (Strain New Guinea C)
Test: Viral yield assay against Dengue-2 in Vero cells
Assay type: cell-based, Dengue virus
Details: Dengue virus
In short: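 Vero cells were infected with dengue-2 at MOI 0.1, treated with compound (DMSO control), and kept at 37° C. They were harvested 48 hours post infection and yield was titered on Vero cells. EC50 came from the yield curve, and the other serotypes were run in a similar way.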

[1] = Vero, 48 h, read-out: Activity (EC50 class) against Dengue-2 Virus in Vero cells
[2] = Vero cells, MOI 0.1, harvested 48 hours post infection, read-out: Activity (EC50 class) against Dengue-2 Virus in Vero cells
[3] = DENV2, viral yield assay, Vero cells, MOI 0.1, 48 hours post infection, read-out: Activity (EC50 in μM) DENV-2

Structure (SMILES) | EC50 [3] | also measured
Cn1cnc2c(sc3nc4c(cc32)COC(C)(C)C4)c1=O [Compound 201, 2,8,8-Trimethyl-8,9-dihydro-2H,6H-7-oxa-11-thia-2,4,10-triaza-benzo[b]fluoren-1-one] | – | EC50 [1]: > 25 µM
CCc1ccccc1NC(=O)c1sc2nc3c(c(-c4ccco4)c2c1N)CCC3 [Compound 219, 3-Amino-4-furan-2-yl-6,7-dihydro-5H-cyclopenta[b]thieno[3,2-e]pyridine-2-carboxylic acid (2-ethyl-phenyl)-amide] | – | EC50 [2]: > 25 µM
NC(=O)c1sc2nc3c(c(-c4ccco4)c2c1N)CCCC3 [Compound 11, 3-Amino-4-furan-2-yl-5,6,7,8-tetrahydro-thieno[2,3-b]quinoline-2-carboxylic acid amide] | – | EC50 [2]: < 5 µM
COc1ccc(OC)c(NC(=O)c2sc3nc(-c4ccc(OC)c(OC)c4)ccc3c2N)c1 [Compound 518, 3-amino-N-(2,5-dimethoxyphenyl)-6-(3,4-dimethoxyphenyl)thieno[2,3-b]pyridine-2-carboxamide] | < 5 µM | –
Cc1cc(NC(=O)c2sc3nc(C)c(C)c(C)c3c2N)no1 [Compound 255, 3-Amino-4,5,6-trimethyl-thieno[2,3-b]pyridine-2-carboxylic acid (5-methyl-isoxazol-3-yl)-amide] | – | EC50 [2]: > 25 µM
COCc1cc(C)nc2sc(C(=O)NC3CCCCC3)c(N)c12 [Compound 176, 3-Amino-4-methoxymethyl-6-methyl-thieno[2,3-b]pyridine-2-carboxylic acid cyclohexylamide] | – | EC50 [1]: > 25 µM
Cc1cnc2sc(C(=O)Nc3nnc(-c4ccccc4)s3)c(N)c2c1 [Compound 286, 3-amino-5-methyl-N-(5-phenyl-1,3,4-thiadiazol-2-yl)thieno[2,3-b]pyridine-2-carboxamide] | < 5 µM | –
CC(=O)c1cnc2sc(C(=O)N(CCc3ccccc3)Cc3cccs3)c(C)c2c1 [Compound 390, 5-acetyl-3-methyl-N-phenethyl-N-(2-thienylmethyl)thieno[2,3-b]pyridine-2-carboxamide] | < 5 µM | –
COc1ccc(-c2ccc3c(N)c(C(=O)Nc4ccccc4C)sc3n2)cc1OC [Compound 581, 3-amino-6-(3,4-dimethoxyphenyl)-N-(o-tolyl)thieno[2,3-b]pyridine-2-carboxamide] | < 5 µM | –
Nc1cnc2sc(C(=O)Nc3nnc(-c4ccccc4)s3)c(N)c2c1 [Compound 290, 3,5-diamino-N-(5-phenyl-1,3,4-thiadiazol-2-yl)thieno[2,3-b]pyridine-2-carboxamide] | < 5 µM | –
COc1cccc(-c2ccc3c(N)c(C(=O)Nc4ccc(Br)cc4F)sc3n2)c1 [Compound 556, 3-amino-N-(4-bromo-2-fluoro-phenyl)-6-(3-methoxyphenyl)thieno[2,3-b]pyridine-2-carboxamide] | < 5 µM | –
COc1ccc(-c2ccc3c(N)c(C(=O)Nc4ccc5c(c4)OCO5)sc3n2)cc1OC [Compound 580, 3-amino-N-(1,3-benzodioxol-5-yl)-6-(3,4-dimethoxyphenyl)thieno[2,3-b] pyridine-2-carboxamide] | – | EC50 (DENV2, Vero, 48 h, read-out: Activity (EC50 in μM) DENV-2): < 5 µM
Nc1c(C(=O)N2CCOCC2)sc2nc3c(cc12)CCCCC3 [Compound 139, (3-Amino-6,7,8,9-tetrahydro-5H-1-thia-10-aza-cyclohepta[f]inden-2-yl)-morpholin-4-yl-methanone] | – | EC50 [1]: > 25 µM
Cc1ccc(-c2ccc3c(N)c(C(=O)Nc4cccc(C)c4)sc3n2)cc1 [Compound 644, 3-amino-N-(m-tolyl)-6-(p-tolyl)thieno[2,3-b]pyridine-2-carboxamide] | < 5 µM | –
Cc1cc(C)c2c(N)c(C(=O)Nc3cccc4cccnc34)sc2n1 [Compound 121, 3-Amino-4,6-dimethyl-thieno[2,3-b]pyridine-2-carboxylic acid quinolin-8-ylamide] | – | EC50 [2]: > 25 µM
COc1ccc(NC(=O)c2sc3nc(-c4ccc(OC)c(OC)c4)ccc3c2N)c(OC)c1 [Compound 536, 3-amino-N-(2,4-dimethoxyphenyl)-6-(3,4-dimethoxyphenyl)thieno[2,3-b]pyridine-2-carboxamide] | < 5 µM | –
COCc1cc(C)nc2sc(C(=O)Nc3ccc(C)c(Cl)c3)c(N)c12 [Compound 229, 3-Amino-4-methoxymethyl-6-methyl-thieno[2,3-b]pyridine-2-carboxylic acid (3-chloro-4-methyl-phenyl)-amide] | – | EC50 [2]: > 25 µM
COc1ccc(Cl)cc1NC(=O)c1sc2nc(-c3cccs3)ccc2c1N [Compound 460, 3-amino-N-(5-chloro-2-methoxy-phenyl)-6-(2-thienyl)thieno[2,3-b]pyridine-2-carboxamide] | < 5 µM | –
COc1ccc(Cl)cc1NC(=O)c1sc2nc3c(cc2c1N)CN(Cc1ccccc1)CC3 [Compound 31, 3-Amino-6-benzyl-5,6,7,8-tetrahydro-thieno[2,3-b][1,6]naphthyridine-2-carboxylic acid (5-chloro-2-methoxy-phenyl)-amide] | – | EC50 [2]: < 5 µM

Structure (SMILES) | EC50 [3] | also measured
COc1ccc(NC(=O)c2sc3nc(-c4ccc(OC)c(OC)c4)ccc3c2N)c(C)c1 [Compound 500, 3-amino-6-(3,4-dimethoxyphenyl)-N-(4-methoxy-2-methyl-phenyl)thieno[2,3-b] pyridine-2-carboxamide] | < 5 µM | –
Cc1cc(C)c2c(C)c(C(=O)NCCC(=O)N3CCCC3)sc2n1 [Compound 405, 3,4,6-trimethyl-N-(3-oxo-3-pyrrolidin-1-yl-propyl)thieno[2,3-b]pyridine-2-carboxamide] | < 5 µM | –
Nc1c(C(=O)Nc2ccc(Br)cc2)sc2nc(-c3cccnc3)ccc12 [Compound 435, 3-amino-N-(4-bromophenyl)-6-(3-pyridyl)thieno[2,3-b]pyridine-2-carboxamide] | < 5 µM | –
Nc1c(C(=O)Nc2cccc(C(F)(F)F)c2)sc2nc(-c3cccs3)ccc12 [Compound 3, 3-Amino-6-thiophen-2-yl-thieno[2,3-b]pyridine-2-carboxylic acid (3-trifluoromethyl-phenyl)-amide] | – | EC50 [2]: < 5 µM
Nc1c(C(=O)Nc2ccccc2F)sc2nc3c(cc12)CCCC3 [Compound 78, 3-Amino-5,6,7,8-tetrahydro-thieno[2,3-b]quinoline-2-carboxylic acid (2-fluoro-phenyl)-amide] | – | EC50 [1]: 5 to 25 µM
Cc1ccc(-c2ccc3c(N)c(C(=O)Nc4ccc(F)cc4)sc3n2)cc1 [Compound 640, 3-amino-N-(4-fluorophenyl)-6-(p-tolyl) thieno[2,3-b]pyridine-2-carboxamide] | < 5 µM | –
N#Cc1ccc(NC(=O)c2sc3nc(N)c(C#N)cc3c2N)cc1 [Compound 152, 3,6-Diamino-5-cyano-thieno[2,3-b]pyridine-2-carboxylic acid (4-cyano-phenyl)-amide] | – | EC50 [2]: > 25 µM
Nc1c(C(=O)Nc2nnc(-c3ccccc3)s2)sc2nc(-c3cccs3)cc(C(F)(F)F)c12 [Compound 5, 3-Amino-6-thiophen-2-yl-4-trifluoromethyl-thieno[2,3-b]pyridine-2-carboxylic acid (5-phenyl-[1,3,4]thiadiazol-2-yl)-amide] | – | EC50 [2]: < 5 µM
Nc1c(C(=O)N2CCCCC2)sc2nc(-c3cccs3)cc(C(F)(F)F)c12 [Compound 189, (3-Amino-6-thiophen-2-yl-4-trifluoromethyl-thieno[2,3-b]pyridin-2-yl)-piperidin-1-yl-methanone] | – | EC50 [2]: > 25 µM
O=C1CN(c2cccc(C(F)(F)F)c2)C(=O)c2sc3nc(-c4cccs4)ccc3c2N1 [Compound 320] | < 5 µM | –
CCOc1cccc(NC(=O)c2sc3nc(-c4ccc(F)cc4)ccc3c2N)c1 [Compound 611, 3-amino-N-(3-ethoxyphenyl)-6-(4-fluorophenyl)thieno[2,3-b]pyridine-2-carboxamide] | < 5 µM | –
COc1ccc(C(F)(F)F)cc1NC(=O)c1sc2nc(-c3ccc(OC)c(OC)c3)ccc2c1N [Compound 531, 3-amino-6-(3,4-dimethoxyphenyl)-N-[2-methoxy-5-(trifluoromethyl)phenyl]thieno [2,3-b]pyridine-2-carboxamide] | < 5 µM | –
NCCCNc1c(C(=O)Nc2nnc(-c3ccccc3)s2)sc2nc3c(cc12)CCCCC3 [Compound 313, 3-((3-aminopropyl)amino)-N-(5-phenyl-1,3,4-thiadiazol-2-yl)-6,7,8,9-tetrahydro-5H-cyclohepta[b]thieno[3,2-e]pyridine-2-carboxamide] | – | EC50 (DENV2, Vero cells, read-out: Activity (EC50 in μM) DENV-2): < 5 µM
Nc1c(C(=O)Nc2ccc(F)c(Cl)c2)sc2nc(-c3ccc4c(c3)OCO4)ccc12 [Compound 595, 3-amino-6-(1,3-benzodioxol-5-yl)-N-(3-chloro-4-fluoro-phenyl)thieno[2,3-b] pyridine-2-carboxamide] | < 5 µM | –
Nc1c(C(=O)N(CCC(=O)O)c2ccc(Cl)cc2)sc2nc(-c3ccc(Cl)cc3)ccc12 [Compound 355, 3-(N-[3-amino-6-(4-chloro-phenyl)thieno [2,3-b]pyridine-2-carbonyl]-4-chloro-anilino) propanoic acid] | < 5 µM | –
C=CCc1c(C)nc2sc(C(=O)Nc3cccc(Cl)c3)c(N)c2c1C [Compound 96, 5-Allyl-3-amino-4,6-dimethyl-thieno[2,3-b]pyridine-2-carboxylic acid (3-chloro-phenyl)-amide] | – | EC50 [2]: 5 to 25 µM
Cc1nc2sc(C(=O)Nc3ccc(Br)cc3)c(N)c2c(C)c1C [Compound 157, 3-Amino-4,5,6-trimethyl-thieno[2,3-b]pyridine-2-carboxylic acid (4-bromo-phenyl)-amide] | – | EC50 [1]: > 25 µM
CN1CCc2nc3sc(C(=O)NC4CC4)c(N)c3cc2C1 [Compound 105, 3-Amino-6-methyl-5,6,7,8-tetrahydro-thieno[2,3-b][1,6]naphthyridine-2-carboxylic acid cyclopropylamide] | – | EC50 [1]: 5 to 25 µM
Cc1cc(C)c2c(C)c(C(=O)Nc3ccccc3O)sc2n1 [Compound 403, N-(2-hydroxyphenyl)-3,4,6-trimethyl-thieno[2,3-b]pyridine-2-carboxamide] | < 5 µM | –
